Earlier results, collected in article PMC8287861 (Frontiers in Microbiology, 2021).
Values after ≈ are worked out from the molar mass of the structure shown.

Tests used:
Parameters in all cases: method as in Lomovskaya et al. (2020b)
PAM4907 PER-4 = conditions: PAM4907, PER-4, class A; ref Lomovskaya et al. (2020b)
PAM4135 KPC-2 = conditions: PAM4135, KPC-2, class A-CARB; ref Lomovskaya et al. (2020b)
PAM4795 VIM-1 = conditions: PAM4795, VIM-1, class B1; ref Lomovskaya et al. (2020b)
PAM4883 GIM-1 = conditions: PAM4883, GIM-1, class B1; ref Lomovskaya et al. (2020b)
PAM4744 SME-2 = conditions: PAM4744, SME-2, class A-CARB; ref Lomovskaya et al. (2020b)
PAM4198 IMP-15 = conditions: PAM4198, IMP-15, class B1; ref Lomovskaya et al. (2020b)
PAM4819 CTX-M-2 = conditions: PAM4819, CTX-M-2, class A; ref Lomovskaya et al. (2020b)
PAM4938 VEB-9 = conditions: PAM4938, VEB-9, class A; ref Lomovskaya et al. (2020b)
PAM4864 SFC-1 = conditions: PAM4864, SFC-1, class A-CARB; ref Lomovskaya et al. (2020b)
PAM4875 OXA-23 = conditions: PAM4875, OXA-23, class D-CARB; ref Lomovskaya et al. (2020b)
PAM4912 VEB-3 = conditions: PAM4912, VEB-3, class A; ref Lomovskaya et al. (2020b)
PAM4196 IMP-13 = conditions: PAM4196, IMP-13, class B1; ref Lomovskaya et al. (2020b)
PAM4179 NDM-1 = conditions: PAM4179, NDM-1, class B1; ref Lomovskaya et al. (2020b)
PAM4825 MIR-1 = conditions: PAM4825, MIR-1, class C; ref Lomovskaya et al. (2020b)
PAM4874 SHV-12 = conditions: PAM4874, SHV-12, class A; ref Lomovskaya et al. (2020b)
PAM4186 CMY-2 = conditions: PAM4186, CMY-2, class C; ref Lomovskaya et al. (2020b)
PAM4842 PER-2 = conditions: PAM4842, PER-2, class A; ref Lomovskaya et al. (2020b)
PAM4743 CTX-M-15 = conditions: PAM4743, CTX-M-15, class A; ref Lomovskaya et al. (2020b)
PAM4822 CTX-M-27 = conditions: PAM4822, CTX-M-27, class A; ref Lomovskaya et al. (2020b)
PAM4879 CcrA1 = conditions: PAM4879, CcrA1, class B1; ref Lomovskaya et al. (2020b)
PAM4745 P99 = conditions: PAM4745, P99, class C; ref Lomovskaya et al. (2020b)
PAM4676 BKC-1 = conditions: PAM4676, BKC-1, class A-CARB; ref Lomovskaya et al. (2020b)
PAM4877 OXA-58 = conditions: PAM4877, OXA-58, class D-CARB; ref Lomovskaya et al. (2020b)
PAM4869 PDC-1 = conditions: PAM4869, PDC-1, class C; ref Lomovskaya et al. (2020b)
PAM4889 IMP-26 = conditions: PAM4889, IMP-26, class B1; ref Lomovskaya et al. (2020b)
PAM4890 IMP-19 = conditions: PAM4890, IMP-19, class B1; ref Lomovskaya et al. (2020b)

SMILES	MIC (PAM4907 PER-4) [µg/mL]	MIC (PAM4135 KPC-2) [µg/mL]	MIC (PAM4795 VIM-1) [µg/mL]	MIC (PAM4883 GIM-1) [µg/mL]	MIC (PAM4744 SME-2) [µg/mL]	MIC (PAM4198 IMP-15) [µg/mL]	MIC (PAM4819 CTX-M-2) [µg/mL]	MIC (PAM4938 VEB-9) [µg/mL]	MIC (PAM4864 SFC-1) [µg/mL]	MIC (PAM4875 OXA-23) [µg/mL]	MIC (PAM4912 VEB-3) [µg/mL]	MIC (PAM4196 IMP-13) [µg/mL]	MIC (PAM4179 NDM-1) [µg/mL]	MIC (PAM4825 MIR-1) [µg/mL]	MIC (PAM4874 SHV-12) [µg/mL]	MIC (PAM4186 CMY-2) [µg/mL]	MIC (PAM4842 PER-2) [µg/mL]	MIC (PAM4743 CTX-M-15) [µg/mL]	MIC (PAM4822 CTX-M-27) [µg/mL]	MIC (PAM4879 CcrA1) [µg/mL]	also measured
CC(C)(O/N=C(\C(=O)N[C@@H]1C(=O)N2C(C(=O)[O-])=C(C[n+]3ccccc3)CS[C@H]12)c1csc(N)n1)C(=O)O [Ceftazidime, ceftazidime]	>64	16 (≈ 29.3 µM)	64 (≈ 117 µM)	>64	0.5 (≈ 0.915 µM)	64 (≈ 117 µM)	1 (≈ 1.83 µM)	256 (≈ 468 µM)	2 (≈ 3.66 µM)	0.25 (≈ 0.457 µM)	>64	64 (≈ 117 µM)	>64	16 (≈ 29.3 µM)	>64	16 (≈ 29.3 µM)	>64	32 (≈ 58.5 µM)	64 (≈ 117 µM)	4 (≈ 7.32 µM)	MIC (PAM4745 P99): 64 µg/mL (≈ 117 µM); MIC (PAM4676 BKC-1): 3 µg/mL (≈ 5.49 µM); MIC (PAM4877 OXA-58): 0.25 µg/mL (≈ 0.457 µM); MIC (PAM4869 PDC-1): 16 µg/mL (≈ 29.3 µM); MIC (PAM4889 IMP-26): >64 µg/mL; MIC (PAM4890 IMP-19): >64 µg/mL
CCN1CCN(C(=O)N[C@@H](C(=O)N[C@@H]2C(=O)N3[C@@H]2SC(C)(C)[C@@H]3C(=O)O)c2ccccc2)C(=O)C1=O [Piperacillin, piperacillin]	0.5 (≈ 0.966 µM)	>64	16 (≈ 30.9 µM)	>64	8 (≈ 15.5 µM)	0.5 (≈ 0.966 µM)	64 (≈ 124 µM)	16 (≈ 30.9 µM)	>64	16 (≈ 30.9 µM)	8 (≈ 15.5 µM)	0.5 (≈ 0.966 µM)	64 (≈ 124 µM)	8 (≈ 15.5 µM)	>64	8 (≈ 15.5 µM)	1 (≈ 1.93 µM)	>64	>64	0.25 (≈ 0.483 µM)	MIC (PAM4745 P99): 64 µg/mL (≈ 124 µM); MIC (PAM4676 BKC-1): 32 µg/mL (≈ 61.8 µM); MIC (PAM4877 OXA-58): 4 µg/mL (≈ 7.73 µM); MIC (PAM4869 PDC-1): >64 µg/mL; MIC (PAM4889 IMP-26): 0.125 µg/mL (≈ 0.242 µM); MIC (PAM4890 IMP-19): 0.25 µg/mL (≈ 0.483 µM)
